Inconclusive results and toxic doses are left out.
Tested on: CD2F1 mice, L1210 leukemia ip, survival T/C
Experiment: NCI In Vivo Anticancer Drug Screen. Data for tumor model L1210 Leukemia (intraperitoneal) in CD2F1 (CDF1) mice
Settings: endpoint: mean survival time, higher = longer survival
Outline: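 Mice carrying a transplanted tumor received test compound or vehicle alone. The value is the measurement in the treated group divided by that in the vehicle-treated control group.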

[1] = dose: 25.0 mg/kg/injection, schedule: Q01DX009 (ip), vehicle: water
[2] = dose: 100.0 mg/kg/injection, schedule: Q04DX003 (ip), vehicle: saline with Tween-80
[3] = dose: 200.0 mg/kg/injection, schedule: Q04DX003 (ip), vehicle: saline with Tween-80
[4] = dose: 400.0 mg/kg/injection, schedule: Q04DX003 (ip), vehicle: saline with Tween-80
[5] = dose: 100.0 mg/kg/injection, schedule: Q01DX009 (ip), vehicle: saline with Tween-80

Question: Which results are given for `COc1cc2ccc(/C=C/C(=O)c3ccc4c(c3)OCO4)cc2cc1OC`?
Answer: T/C [1]: 98 % of control; T/C (dose: 50.0 mg/kg/injection, schedule: Q01DX009 (ip), vehicle: water): 91 % of control; T/C (dose: 100.0 mg/kg/injection, schedule: Q01DX009 (ip), vehicle: water): 88 % of control; T/C (dose: 200.0 mg/kg/injection, schedule: Q01DX009 (ip), vehicle: water): 90 % of control; T/C (dose: 400.0 mg/kg/injection, schedule: Q01DX009 (ip), vehicle: water): 88 % of control

Question: How did the T/C (dose: 25.0 mg/kg/injection, schedule: Q01DX009 (ip), vehicle: Klucel (hydroxypropylcellulose) (HPC)) turn out when `C/C(=N\O)c1ccccn1` was run?
Answer: 95 % of control

Question: And the T/C (dose: 50.0 mg/kg/injection, schedule: Q01DX009 (ip), vehicle: Klucel (hydroxypropylcellulose) (HPC))?
Answer: 100 % of control

Question: What about the T/C (dose: 100.0 mg/kg/injection, schedule: Q01DX009 (ip), vehicle: Klucel (hydroxypropylcellulose) (HPC)) of the same molecule?
Answer: 90 % of control

Question: What about the T/C (dose: 200.0 mg/kg/injection, schedule: Q01DX009 (ip), vehicle: Klucel (hydroxypropylcellulose) (HPC)) of the same molecule?
Answer: 95 % of control

Question: And the T/C (dose: 400.0 mg/kg/injection, schedule: Q01DX009 (ip), vehicle: Klucel (hydroxypropylcellulose) (HPC))?
Answer: 105 % of control

Question: `Oc1ccc(C/C=C/c2ccccc2)cc1` was tested. Which T/C [2] did it give?
Answer: 102 % of control

Question: And the T/C [3]?
Answer: 100 % of control

Question: What about the T/C [4] of the same molecule?
Answer: 102 % of control

Question: `CC/C(I)=C(/CC)S(=O)(=O)c1ccc(C)cc1` was tested. Which T/C (dose: 100.0 mg/kg/injection, schedule: Q04DX003 (ip), vehicle: saline) did it give?
Answer: 95 % of control

Question: What about the T/C (dose: 200.0 mg/kg/injection, schedule: Q04DX003 (ip), vehicle: saline) of the same molecule?
Answer: 103 % of control

Question: What about the T/C (dose: 400.0 mg/kg/injection, schedule: Q04DX003 (ip), vehicle: saline) of the same molecule?
Answer: 94 % of control

Question: Which T/C (dose: 3.13 mg/kg/injection, schedule: Q04DX003 (ip), vehicle: distilled water + Tween-80) does the source give for `C1CCC(C2CCCC[N-]2)[N-]C1.C1CCC(C2CCCC[N-]2)[N-]C1.[Cl][Ru][Cl]` (stereo not drawn) here?
Answer: 93 % of control

Question: What about the T/C (dose: 6.25 mg/kg/injection, schedule: Q04DX003 (ip), vehicle: distilled water + Tween-80) of the same molecule?
Answer: 88 % of control

Question: What about the T/C (dose: 12.5 mg/kg/injection, schedule: Q04DX003 (ip), vehicle: distilled water + Tween-80) of the same molecule?
Answer: 92 % of control

Question: What about the T/C (dose: 25.0 mg/kg/injection, schedule: Q04DX003 (ip), vehicle: distilled water + Tween-80) of the same molecule?
Answer: 88 % of control

Question: And the T/C (dose: 50.0 mg/kg/injection, schedule: Q04DX003 (ip), vehicle: distilled water + Tween-80)?
Answer: 97 % of control

Question: With `Oc1ccc(C(=S)N2CCOCC2)cc1` as the molecule, how does the T/C (dose: 100.0 mg/kg/injection, schedule: Q01DX009 (ip), vehicle: saline) read?
Answer: 100 % of control

Question: And the T/C (dose: 200.0 mg/kg/injection, schedule: Q01DX009 (ip), vehicle: saline)?
Answer: 95 % of control

Question: And the T/C (dose: 400.0 mg/kg/injection, schedule: Q01DX009 (ip), vehicle: saline)?
Answer: 94 % of control

Question: For `COc1cc(OC)c(NC(=O)N2CCN(C)CC2)cc1Cl`, which T/C (dose: 50.0 mg/kg/injection, schedule: Q01DX009 (ip), vehicle: saline with Tween-80) is on record?
Answer: 88 % of control

Question: What about the T/C [5] of the same molecule?
Answer: 94 % of control

Question: `CC(NC(=O)OCc1ccccc1)C(=O)NCCC(=O)OCc1ccccc1` (stereo not drawn) was tested. Which T/C [5] did it give?
Answer: 93 % of control

Question: And the T/C (dose: 200.0 mg/kg/injection, schedule: Q01DX009 (ip), vehicle: saline with Tween-80)?
Answer: 95 % of control

Question: And the T/C (dose: 400.0 mg/kg/injection, schedule: Q01DX009 (ip), vehicle: saline with Tween-80)?
Answer: 90 % of control

Question: With `COC1=C(OC)C(=O)C(SCCCc2ccccc2)=CC1=O` as the molecule, how does the T/C (dose: 6.25 mg/kg/injection, schedule: Q01DX009 (ip), vehicle: saline with Tween-80) read?
Answer: 98 % of control

Question: What about the T/C (dose: 12.5 mg/kg/injection, schedule: Q01DX009 (ip), vehicle: saline with Tween-80) of the same molecule?
Answer: 102 % of control

Question: And the T/C (dose: 25.0 mg/kg/injection, schedule: Q01DX009 (ip), vehicle: saline with Tween-80)?
Answer: 93 % of control

Question: How did the T/C (dose: 1.56 mg/kg/injection, schedule: Q01DX009 (ip), vehicle: water) turn out when `Cn1ccc(=Nc2ccc(NC(=O)c3ccc(N=c4ccn(C)c5ccc([N+](=O)[O-])cc45)cc3)cc2)cc1` was run?
Answer: 106 % of control

Question: And the T/C (dose: 3.13 mg/kg/injection, schedule: Q01DX009 (ip), vehicle: water)?
Answer: 112 % of control

Question: What about the T/C (dose: 6.25 mg/kg/injection, schedule: Q01DX009 (ip), vehicle: water) of the same molecule?
Answer: 124 % of control

Question: What about the T/C (dose: 12.5 mg/kg/injection, schedule: Q01DX009 (ip), vehicle: water) of the same molecule?
Answer: 181 % of control

Question: What about the T/C [1] of the same molecule?
Answer: 227 % of control

Question: For `NC(CCc1ccc2c(c1)OCO2)C(=O)O` (stereo not drawn), which T/C (dose: 100.0 mg/kg/injection, schedule: Q01DX001 (ip), vehicle: saline with Tween-80) is on record?
Answer: 97 % of control

Question: What about the T/C (dose: 200.0 mg/kg/injection, schedule: Q01DX001 (ip), vehicle: saline with Tween-80) of the same molecule?
Answer: 100 % of control

Question: What about the T/C (dose: 400.0 mg/kg/injection, schedule: Q01DX001 (ip), vehicle: saline with Tween-80) of the same molecule?
Answer: 90 % of control

Question: `CCN(CC)C(=O)/C=C/c1ccccc1` was tested. Which T/C [2] did it give?
Answer: 103 % of control

Question: And the T/C [3]?
Answer: 101 % of control

Question: And the T/C [4]?
Answer: 103 % of control

Reference: PubChem BioAssay AID256 (DTP/NCI, 2004)
